Measured values published in patent US20230278954A1, “BRANCHED LIPID COMPOUDS” (priority 2020, published 2023).
Several values for one entry are separate records, joined by “and”; a condition that tells them apart may be missing. Equal values may be shown once.

Columns and labels:
human TLR2 [1] = molecular target: T1, human TLR2 (Homo sapiens, UniProt O60603); assay: Activation of human TLR2 III: HEK-Blue hTLR2 dose response (SEAP reporter); assay type: cell-based; conditions: for optical density (650 nm): screenings 1-3
T1 construct: expressed in transfected cells; host or cells: HEK-Blue hTLR2 cells
Protocol: (§1) Toll-Like Receptor (TLR) stimulation is tested by assessing NF-KB activation in the TLR expressing cell lines. HEK-Blue h/mTLR2 cells have been stably transfected with human or mouse TLR2 and CD14. The activity of the test articles are tested on human and mouse TLR2, as potential agonists. The test articles are evaluated at seven concentrations and compared to control ligands (see list below). These steps are performed in triplicate.
(§2) A 5 µg/mL working stock was then prepared for each compound from the 20 µg/mL dilution in sterile PBS. Starting from the 5 µg/mL working stock, a series of six 1:4 serial dilutions were made by mixing 100 µL of the previous highest dilution with 300 µL sterile PBS.
(§3) The secreted embryonic alkaline phosphatase (SEAP) reporter is under the control of a promoter inducible by the transcription factor NF-κB. This reporter gene allows the monitoring of signaling through the TLR, based on the activation of NF-κB. In a 96-well plate (200 µL total volume) containing the appropriate cells (50,000 - 75,000 cells/well), 20 µL of the test article or the positive control ligand (HKLC) is added to the wells. The media added to the wells is designed for the detection of NF-κB induced SEAP expression. After a 16-24-hour incubation the optical density (OD) is read at 650 nm on a Molecular Devices SpectraMax 340PC absorbance detector.

mouse TLR2 = molecular target: T2, mouse TLR2 (Mus musculus, UniProt Q9QUN7); assay: HEK-Blue mTLR2 dose response (SEAP reporter); assay type: cell-based
T2 construct: expressed in transfected cells; host or cells: HEK-Blue mTLR2 cells
Protocol: as §1, §2, §3

[2] = Stability IV: formulation pH during accelerated storage; assay type: physicochemical
Protocol: Each compound was formulated in 0.9% w/w saline with addition of 0.1% w/w EDTA at about pH 5. The formulations were stored in the dark under accelerated conditions (40° C./75% RH) and reference formulations were stored at -80° C. At days 0, 9 and 28, samples were analysed by UHPLC and pH was measured.
The remaining ~ 1 mL of solution in the clear glass HPLC vials was stored at 40° C./75% RH and was used to measure pH at each time point.
The formulation pH data recorded at each time point are compiled in Table 19. There was a general trend for the pH to increase with time but the effect was not pronounced.

human TLR2 [3] = molecular target: T1, human TLR2; assay: Activation of human TLR2 II: HEK-BLUE-hTLR2 NF-kB/SEAP reporter assay; assay type: cell-based; conditions: for optical density (650 nm): screenings 1-3
Protocol: The potency of the compounds as activators of human TLR-2s is tested in an in vitro assay in HEK-BLUE-hTLR2 cells.
HEK-BLUE-hTLR2 cells are designed for studying the stimulation of human TLR2 (hTLR2) by monitoring the activation of NF-kB. HEK-BLUE-hTLR2 cells are obtained by co-transfection of the hTLR2 and SEAP (secreted embryonic alkaline phosphatase) reporter genes into HEK293 cells. Stimulation with a TLR2 ligand activates NF-kB which induces the production of SEAP.
HEK-BLUE-hTLR2 cells were purchased from InvivoGen (San Diego, CA, USA). Cells were grown in DMEM supplemented with 10% FCS, 100 U/ml penicillin, 100 ug/ml streptomycin and 2 mM L-glutamine, 100 µg/mL Normocin in the presence of selection antibiotic purchased from InvivoGen and passaged when 70% confluence was reached per manufacturer’s recommendation.
i) A serial dilution of respective compounds were prepared in saline and added in […] of each dilution in triplicates per well in a flat bottom 96-well plate and placed in the incubator while waiting for the cells.
ii) Remove HEK-BLUE-hTLR2 cells in a T-75 flask from incubator and discard the growth media.
iii) Gently rinse the cells with prewarmed 10 ml of PBS
iv) Add 5 ml of prewarmed PBS and place the cells in 37° C. for 2 mins and then detach the cells by gently pipetting up and down the PBS on the surface where the cells adhere.
v) Cells suspension at the density of 280,000 cells/ml is prepared in HEK-Blue™ Detection medium which is purchased from InvivoGen and prepared according to the manufacturer’s instruction,
vi) Add immediately […] of the cell suspension per well of the plate which contains the solution of the compounds. […]

HEK-Blue Null1 cells = assay: TLR- control cell line HEK-Blue Null1 (control for human TLR2); assay type: cell-based
Protocol: as §3

HEK-Blue Null2 cells = assay: TLR- control cell line HEK-Blue Null2 (control for mouse TLR2); assay type: cell-based
Protocol: as §3

T1 sequence (O60603 21-784): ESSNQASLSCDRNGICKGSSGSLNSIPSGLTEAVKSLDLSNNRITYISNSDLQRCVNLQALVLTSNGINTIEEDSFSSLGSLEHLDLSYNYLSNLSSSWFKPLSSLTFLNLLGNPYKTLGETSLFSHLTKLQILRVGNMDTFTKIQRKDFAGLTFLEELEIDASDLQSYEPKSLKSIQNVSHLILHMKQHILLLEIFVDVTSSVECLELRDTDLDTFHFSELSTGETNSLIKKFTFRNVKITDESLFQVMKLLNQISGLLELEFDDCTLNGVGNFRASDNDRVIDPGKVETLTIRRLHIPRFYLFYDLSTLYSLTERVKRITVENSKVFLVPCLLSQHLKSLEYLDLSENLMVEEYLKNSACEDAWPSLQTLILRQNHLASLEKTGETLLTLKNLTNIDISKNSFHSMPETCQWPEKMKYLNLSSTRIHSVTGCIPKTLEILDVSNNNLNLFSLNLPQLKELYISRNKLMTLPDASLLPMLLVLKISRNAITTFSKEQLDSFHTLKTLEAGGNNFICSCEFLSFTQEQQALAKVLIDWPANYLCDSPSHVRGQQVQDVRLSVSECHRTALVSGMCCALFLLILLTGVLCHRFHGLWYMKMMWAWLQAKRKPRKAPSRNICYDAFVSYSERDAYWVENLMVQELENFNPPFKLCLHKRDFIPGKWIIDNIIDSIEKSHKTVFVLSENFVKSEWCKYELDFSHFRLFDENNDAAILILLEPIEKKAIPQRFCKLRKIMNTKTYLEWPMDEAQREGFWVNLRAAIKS
T1 sequence (Q9Y2C9 32-796 partner): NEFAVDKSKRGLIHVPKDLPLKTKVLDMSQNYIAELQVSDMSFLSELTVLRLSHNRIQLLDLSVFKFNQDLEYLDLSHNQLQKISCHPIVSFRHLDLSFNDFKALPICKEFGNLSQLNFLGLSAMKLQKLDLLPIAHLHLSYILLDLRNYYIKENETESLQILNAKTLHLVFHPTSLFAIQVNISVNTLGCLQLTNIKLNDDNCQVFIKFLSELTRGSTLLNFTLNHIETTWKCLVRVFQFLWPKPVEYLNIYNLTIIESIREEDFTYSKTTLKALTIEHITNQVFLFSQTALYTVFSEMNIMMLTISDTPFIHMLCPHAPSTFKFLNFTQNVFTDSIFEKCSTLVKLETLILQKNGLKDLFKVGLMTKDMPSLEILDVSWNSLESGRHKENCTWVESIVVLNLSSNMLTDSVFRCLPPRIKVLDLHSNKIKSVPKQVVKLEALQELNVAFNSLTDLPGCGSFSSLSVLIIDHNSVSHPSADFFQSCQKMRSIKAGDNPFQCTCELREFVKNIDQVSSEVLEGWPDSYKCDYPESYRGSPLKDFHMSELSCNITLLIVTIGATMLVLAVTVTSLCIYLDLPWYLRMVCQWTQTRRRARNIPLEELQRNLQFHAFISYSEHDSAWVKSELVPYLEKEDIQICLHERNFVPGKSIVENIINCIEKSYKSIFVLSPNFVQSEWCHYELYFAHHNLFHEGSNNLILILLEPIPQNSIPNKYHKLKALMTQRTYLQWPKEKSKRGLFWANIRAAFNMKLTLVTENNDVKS
T2 sequence (Q9QUN7 25-784): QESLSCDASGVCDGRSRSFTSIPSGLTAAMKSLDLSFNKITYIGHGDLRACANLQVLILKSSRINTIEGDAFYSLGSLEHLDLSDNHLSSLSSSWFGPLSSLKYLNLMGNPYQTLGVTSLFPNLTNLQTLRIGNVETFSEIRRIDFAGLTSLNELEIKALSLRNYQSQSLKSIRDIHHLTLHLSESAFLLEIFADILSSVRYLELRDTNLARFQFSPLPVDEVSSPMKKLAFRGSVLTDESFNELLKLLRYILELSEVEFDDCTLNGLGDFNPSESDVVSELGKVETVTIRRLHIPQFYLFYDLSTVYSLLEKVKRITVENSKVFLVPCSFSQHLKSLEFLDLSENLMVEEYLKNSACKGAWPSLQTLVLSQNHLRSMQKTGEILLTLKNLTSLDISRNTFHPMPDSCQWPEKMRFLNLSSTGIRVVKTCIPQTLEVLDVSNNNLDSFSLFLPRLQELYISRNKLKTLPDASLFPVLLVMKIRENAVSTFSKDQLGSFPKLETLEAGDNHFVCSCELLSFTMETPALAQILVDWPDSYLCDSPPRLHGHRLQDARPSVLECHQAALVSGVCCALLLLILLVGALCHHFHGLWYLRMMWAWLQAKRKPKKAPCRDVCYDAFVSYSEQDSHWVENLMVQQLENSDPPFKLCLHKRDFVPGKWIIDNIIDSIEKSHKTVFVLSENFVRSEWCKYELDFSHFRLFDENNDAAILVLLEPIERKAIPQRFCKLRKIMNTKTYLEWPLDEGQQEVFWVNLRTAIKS
T2 sequence (Q9Y2C9 32-796 partner): as the sequence (Q9Y2C9 32-796 partner) above

## CCCCCCCCCCCCCCC(C)C(=O)OC[C@H](CSC[C@H](N)C(=O)N[C@@H](CO)C(=O)NCCOCCOCCOCCOCCOCCOCCOCCOCCOCCOCCOCCOCCOCCOCCOCCOCCOCCOCCOCCOCCOCCOCCOCCOCCOCCOCCOCCOCCC(=O)NCC(N)=O)OC(=O)C(C)CCCCCCCCCCCCCC (stereo partly drawn) [Compound B4]
Human TLR2 [1]; 0.12 pg/mL
  Average optical density (650 nm): 0.740
  optical density (650 nm): 0.653 and 0.759 and 0.809
Human TLR2 [1]; 0.49 pg/mL
  Average optical density (650 nm): 1.479
  optical density (650 nm): 1.409 and 1.507 and 1.521
Human TLR2 [1]; 1.95 pg/mL
  Average optical density (650 nm): 1.823
  optical density (650 nm): 1.795 and 1.757 and 1.916
Human TLR2 [1]; 7.81 pg/mL
  Average optical density (650 nm): 2.260
  optical density (650 nm): 2.288 and 2.168 and 2.323
Human TLR2 [1]; 31.25 pg/mL
  Average optical density (650 nm): 2.481
  optical density (650 nm): 2.440 and 2.485 and 2.518
Human TLR2 [1]; 125 pg/mL
  Average optical density (650 nm): 2.521
  optical density (650 nm): 2.569 and 2.508 and 2.487
Human TLR2 [1]; 500 pg/mL
  Average optical density (650 nm): 2.611
  optical density (650 nm): 2.717 and 2.590 and 2.526
Human TLR2 [1]; HEK-Blue hTLR2
  stimulatory / agonist activity for hTLR2 (in words): stimulatory activity
Human TLR2 [1]; HEK-Blue hTLR2, 0.12 pg/mL, read-out: Fold Induction (ratio of average induced value to average non-induced value)
  fold induction at 120 fg/mL: 10.3
Human TLR2 [1]; HEK-Blue hTLR2, 0.49 pg/mL, read-out: Fold Induction (ratio of average induced value to average non-induced value)
  fold induction at 490 fg/mL: 20.5
Human TLR2 [1]; HEK-Blue hTLR2, 1.95 pg/mL, read-out: Fold Induction (ratio of average induced value to average non-induced value)
  fold induction at 1.95 pg/mL: 25.3
Human TLR2 [1]; HEK-Blue hTLR2, 7.81 pg/mL, read-out: Fold Induction (ratio of average induced value to average non-induced value)
  fold induction at 7.81 pg/mL: 31.4
Human TLR2 [1]; HEK-Blue hTLR2, 31.25 pg/mL, read-out: Fold Induction (ratio of average induced value to average non-induced value)
  fold induction at 31.25 pg/mL: 34.5
Human TLR2 [1]; HEK-Blue hTLR2, 125 pg/mL, read-out: Fold Induction (ratio of average induced value to average non-induced value)
  fold induction at 0.000125 µg/mL: 35
Human TLR2 [1]; HEK-Blue hTLR2, 500 pg/mL, read-out: Fold Induction (ratio of average induced value to average non-induced value)
  fold induction at 0.0005 µg/mL: 36.3
Human TLR2 [1]; agonism of hTLR2, HEK-Blue hTLR2
  EC50: 0.214 nM
Mouse TLR2
  stimulatory / agonist activity for mTLR2 (in words): stimulatory activity
[2]; 0-days
  pH of formulation: 5.6
[2]; 9-days, 40° C./75% RH
  pH of formulation: 5.7
[2]; 28-days, 40° C./75% RH
  pH of formulation: 5.7
Human TLR2 [3]; 0.1 ng/mL
  optical density (650 nm): 0.182 and 0.206 and 0.197
Human TLR2 [3]; 0.31 ng/mL
  optical density (650 nm): 0.126 and 0.115
Human TLR2 [3]; 0.5 ng/mL
  optical density (650 nm): 0.719 and 0.594 and 0.617
Human TLR2 [3]; 2.0 ng/mL
  optical density (650 nm): 1.660 and 1.529 and 1.498
Human TLR2 [3]; 7.8 ng/mL
  optical density (650 nm): 2.214 and 2.163
Human TLR2 [3]; 31.3 ng/mL
  optical density (650 nm): 2.438 and 2.327 and 2.350
Human TLR2 [3]; 125 ng/mL
  optical density (650 nm): 2.451 and 2.411 and 2.467
Human TLR2 [3]; HEK-BLUE-hTLR2 cells
  EC50: 0.605 nM
  activity at TLR2 (in words): significant activity
Human TLR2 [3]; HEK-Blue hTLR2, 0.1 ng/mL, read-out: Fold induction (ratio of average induced value to average non-induced value)
  fold induction at 0.0001 µg/mL: 1.9
Human TLR2 [3]; HEK-Blue hTLR2, 0.31 ng/mL, read-out: Fold induction (ratio of average induced value to average non-induced value)
  fold induction at 0.00031 µg/mL: 1.2
Human TLR2 [3]; HEK-Blue hTLR2, 0.5 ng/mL, read-out: Fold induction (ratio of average induced value to average non-induced value)
  fold induction at 0.0005 µg/mL: 6.2
Human TLR2 [3]; HEK-Blue hTLR2, 2.0 ng/mL, read-out: Fold induction (ratio of average induced value to average non-induced value)
  fold induction at 0.002 µg/mL: 15.2
Human TLR2 [3]; HEK-Blue hTLR2, 7.8 ng/mL, read-out: Fold induction (ratio of average induced value to average non-induced value)
  fold induction at 0.0078 µg/mL: 21.3
Human TLR2 [3]; HEK-Blue hTLR2, 31.3 ng/mL, read-out: Fold induction (ratio of average induced value to average non-induced value)
  fold induction at 0.0313 µg/mL: 23
Human TLR2 [3]; HEK-Blue hTLR2, 125 ng/mL, read-out: Fold induction (ratio of average induced value to average non-induced value)
  fold induction at 0.125 µg/mL: 23.7
HEK-Blue Null1 cells
  stimulatory response in HEK-Blue Null1 (human) cells (in words): not observed
HEK-Blue Null2 cells
  stimulatory response in HEK-Blue Null2 (mouse) cells (in words): not observed
